According to patent US20260373135A1, “Methods of Treatment with Tradipitant” (Vanda Pharmaceuticals Inc., priority 2022, published 2026):
Like-named read-outs stand apart in the source and are kept apart here.

What was measured:
[1] = Four-period, two-way crossover open label single-dose food-effect pharmacokinetic study of tradipitant capsules in healthy participants (plasma tradipitant and metabolites M2, M3, M4, M8); format: in vivo, human; settings: for AUC(0-t), Least Squares Geometric Mean Ratio (%), Estimate / AUC(inf), Least Squares Geometric Mean Ratio (%), Estimate / Cmax, Least Squares Geometric Mean Ratio (%), Estimate: fed/fasted; for Tmax / AUC(0-t) / AUC(0-inf) / Cmax: plasma; for Tmax: median; for AUC(inf) Ratio of geometric means (170 mg / 85 mg) / Cmax Ratio of geometric means (170 mg / 85 mg): 85 mg vs 170 mg tradipitant
Description: To evaluate the pharmacokinetics and effect of food on the bioavailability of single-dose capsules containing 170 mg tradipitant and 85 mg tradipitant, an open label, four-period, two-way crossover study is performed. The study comprises two cohorts, each of which conducts a screening phase and an evaluation phase. Cohort 1 only conducts Period 1 and Period 2 (FIG. 5), while Cohort 2 only conducts Period 3 and Period 4 (FIG. 6). It is possible for a participant in Cohort 1 to be a Participant in Cohort 2.
The screening phase (Day-21 to Day-2, FIGS. 5-6) consists of a screening visit wherein an informed consent is obtained from potential participants, and their eligibility is initially assessed based on vital signs, body measurements, physical examination, ECG, clinical laboratory tests, drug and alcohol screen, and medical history. Clinical laboratory testing includes a pharmacogenetics sample for whole genome sequencing. Participants may include men or women aged 18-55 years, inclusive at the time of screening; having a Body Mass Index (BMI) of ≥18.0 and ≤39.0 kg/m^2 (BMI=weight (kg)/[height (m)]^2); and female participants of childbearing potential must be non-pregnant and non-lactating. Participants must be in good health as determined by a medical and psychiatric history, physical examination, electrocardiogram, and serum chemistry and hematology; willing to comply with study procedures and restrictions; willing to provide a pharmacogenetic sample; and have negative test result for selected substances of abuse at screening. Individuals may be excluded from participating based on history (within the 12 months prior to screening) of psychiatric disorders; current clinically significant cardiovascular, respiratory, neurologic, hepatic, hematopoietic, renal, gastrointestinal, or metabolic dysfunction unless currently controlled and stable; history of intolerance and/or hypersensitivity to other NK-1 receptor antagonists; clinically significant deviation from normal in clinical laboratory results, vital signs measurements, or physical examination findings at screening as determined by the clinical investigator; major surgery, trauma (including broken pelvis/legs), illness (e.g. sepsis), or immobility for 3 or more days within the past month; active cancer or cancer treatment within the past 6 months prior to screening; central venous catheter in place or within the past month; impaired liver function indicated by AST, ALT, or bilirubin >2 times the upper limit of normal, unless there is an isolated bilirubin >2 times the upper limit of normal due to Gilbert's syndrome; pregnancy or recent pregnancy (within 6 weeks prior to screening) or women who are breastfeeding; history of drug or alcohol abuse as defined in DSM-V, Diagnostic Criteria for Drug and Alcohol Abuse, within the 12 months prior to screening and/or regular consumption of alcoholic drinks (>2 drinks/day or >14 drinks/week); randomization in a previous tradipitant trial; and participants at risk of suicide, in the opinion of the Investigator. […]

[2] = system: NK-1 receptors; settings: preclinical and clinical studies; cited from earlier work
[3] = fasted conditions, 85 mg vs 170 mg

increase in Tmax in the fed state ([1]; 85 mg tradipitant oral, fed vs fasted): 2 fold | AUC(0-t), Least Squares Geometric Mean Ratio (%), Estimate ([1]; 85 mg tradipitant oral): 234.21% | AUC(inf), Least Squares Geometric Mean Ratio (%), Estimate ([1]; 85 mg tradipitant oral): 263.08% | Cmax, Least Squares Geometric Mean Ratio (%), Estimate ([1]; 85 mg tradipitant oral): 437.59% | Cmax, Least Squares Geometric Mean Ratio (%), Estimate ([1]; 85 mg tradipitant oral, listed as Tradipitant): 473.59% | Tmax ([1]; 170 mg tradipitant oral, fasted): 1.50 (15) hr | AUC(0-t), Least Squares Geometric Mean Ratio (%), Estimate ([1]; 170 mg tradipitant oral): 328.21% | AUC(inf), Least Squares Geometric Mean Ratio (%), Estimate ([1]; 170 mg tradipitant oral): 381.70% | Cmax, Least Squares Geometric Mean Ratio (%), Estimate ([1]; 170 mg tradipitant oral): 703.87% | Tmax ([1]; 170 mg tradipitant oral, fed): 4.00 (15) hr | dose proportionality of AUC(inf) [1, 3]: close to dose proportional | dose proportionality of Cmax [1, 3]: less than dose proportionality | AUC(inf) Ratio of geometric means (170 mg / 85 mg) ([1]; fasted conditions): 1.92 | Cmax Ratio of geometric means (170 mg / 85 mg) ([1]; fasted conditions): 1.32 | AUC(inf) Ratio of geometric means (170 mg / 85 mg) ([1]; fed conditions): 2.30 | Cmax Ratio of geometric means (170 mg / 85 mg) ([1]; fed conditions): 1.93 | AUC(0-t) ([1]; human, po, 85 mg, 85 mg tradipitant oral, fasted, ln-transformed, read-out: AUC(0-t), Least Squares Geometric Mean, Fasted): 1650 ng·h/mL | AUC(0-inf) ([1]; human, po, 85 mg, 85 mg tradipitant oral, fasted, ln-transformed, read-out: AUC(inf), Least Squares Geometric Mean, Fasted): 1790 ng·h/mL | Cmax ([1]; human, po, 85 mg, 85 mg tradipitant oral, fasted, ln-transformed, read-out: Cmax, Least Squares Geometric Mean, Fasted): 84.7 ng/mL | AUC(0-inf) ([1]; human, po, 85 mg, 85 mg tradipitant oral, fasted, geometric mean [geometric % CV], read-out: AUC(inf)): 1840 ng·h/mL | Cmax ([1]; human, po, 85 mg, 85 mg tradipitant oral, fasted, geometric mean [geometric % CV], read-out: Cmax): 84.7 ng/mL | Tmax ([1]; human, po, 85 mg, 85 mg tradipitant oral, fasted, read-out: Tmax): 2 h | AUC(0-t) ([1]; human, po, 85 mg, 85 mg tradipitant oral, fed, ln-transformed, read-out: AUC(0-t), Least Squares Geometric Mean, Fed): 3860 ng·h/mL | AUC(0-inf) ([1]; human, po, 85 mg, 85 mg tradipitant oral, fed, ln-transformed, read-out: AUC(inf), Least Squares Geometric Mean, Fed): 4700 ng·h/mL | Cmax ([1]; human, po, 85 mg, 85 mg tradipitant oral, fed, ln-transformed, read-out: Cmax, Least Squares Geometric Mean, Fed): 401 ng/mL | AUC(0-inf) ([1]; human, po, 85 mg, 85 mg tradipitant oral, fed, geometric mean [geometric % CV], read-out: AUC(inf)): 4520 ng·h/mL | Cmax ([1]; human, po, 85 mg, 85 mg tradipitant oral, fed, geometric mean [geometric % CV], read-out: Cmax): 401 ng/mL | Tmax ([1]; human, po, 85 mg, 85 mg tradipitant oral, fed, read-out: Tmax): 4 h | AUC(0-t) ([1]; human, po, 170 mg, 170 mg tradipitant oral, fasted, ln-transformed, read-out: AUC(0-t), Least Squares Geometric Mean, Fasted): 2800 ng·h/mL | AUC(0-inf) ([1]; human, po, 170 mg, 170 mg tradipitant oral, fasted, ln-transformed, read-out: AUC(inf), Least Squares Geometric Mean, Fasted): 2730 ng·h/mL | Cmax ([1]; human, po, 170 mg, 170 mg tradipitant oral, fasted, ln-transformed, read-out: Cmax, Least Squares Geometric Mean, Fasted): 111 ng/mL | AUC(0-inf) ([1]; human, po, 170 mg, 170 mg tradipitant oral, fasted, geometric mean [geometric % CV], read-out: AUC(inf)): 3530 ng·h/mL | Cmax ([1]; human, po, 170 mg, 170 mg tradipitant oral, fasted, geometric mean [geometric % CV], read-out: Cmax): 112 ng/mL | Tmax ([1]; human, po, 170 mg, 170 mg tradipitant oral, fasted, read-out: Tmax): 1.5 h | AUC(0-t) ([1]; human, po, 170 mg, 170 mg tradipitant oral, fed, ln-transformed, read-out: AUC(0-t), Least Squares Geometric Mean, Fed): 9180 ng·h/mL | AUC(0-inf) ([1]; human, po, 170 mg, 170 mg tradipitant oral, fed, ln-transformed, read-out: AUC(inf), Least Squares Geometric Mean, Fed): 10400 ng·h/mL | Cmax ([1]; human, po, 170 mg, 170 mg tradipitant oral, fed, ln-transformed, read-out: Cmax, Least Squares Geometric Mean, Fed): 778 ng/mL | AUC(0-inf) ([1]; human, po, 170 mg, 170 mg tradipitant oral, fed, geometric mean [geometric % CV], read-out: AUC(inf)): 10400 ng·h/mL | Cmax ([1]; human, po, 170 mg, 170 mg tradipitant oral, fed, geometric mean [geometric % CV], read-out: Cmax): 774 ng/mL | Tmax ([1]; human, po, 170 mg, 170 mg tradipitant oral, fed, read-out: Tmax): 4 h
SMILES: O=C(c1ccccc1Cl)c1cccnc1-c1nnn(Cc2cc(C(F)(F)F)cc(C(F)(F)F)c2)c1-c1ccncc1 [tradipitant, {2-[1-(3,5-Bistrifluoromethylbenzyl)-5-pyridin-4-yl-1H-[1,2,3]triazol-4-yl]-pyridin-3-yl}-(2-chlorophenyl)-methanone]
effect of fed state on absorption (extent/rate, Tmax) ([1]; fed vs fasted, both 170 mg and 85 mg doses): an increase in the extent and a decrease in the rate of absorption | blockade of brain NK-1 receptors [2]: long-lasting blockade of brain NK-1 receptors
